In patent US20160201063A1, “EPIGENETIC REGULATORS OF FRATAXIN” (RANA THERAPEUTICS, INC., priority 2013, published 2016):
Counter-ions that a name gives are not always drawn.

Experiments:
FXN mRNA [1] = assay: Screen of epigenetic inhibitors in GM0321 normal fibroblasts, FXN RNA levels; type: cell-based, human; settings: GM0321 normal fibroblasts, 3 days of treatment; for FXN mRNA fold change, 321B 1 uM / fold induction at 1 µM: 1 uM inhibitor; for FXN mRNA fold change, 321B 5 uM / fold induction at 5 µM: 5 uM inhibitor; for fold induction at 1 µM / fold induction at 5 µM: Homo sapiens, Fibroblast, 72 h; for fold induction at 1 µM: read-out: FXN mRNA fold change, 321B 1 uM; for fold induction at 5 µM: read-out: FXN mRNA fold change, 321B 5 uM
FXN mRNA [2] = assay: Screen of library of eighty epigenetic inhibitors in GM03816 FRDA diseased fibroblasts, FXN mRNA fold change; type: cell-based, human; settings: GM03816 FRDA diseased fibroblasts, 3 days of treatment; for 3816 1 uM (FXN mRNA fold change) / fold induction at 1 µM: 1 uM inhibitor; for 3816 5 uM (FXN mRNA fold change) / fold induction at 5 µM: 5 uM inhibitor; for fold induction at 1 µM / fold induction at 5 µM: Homo sapiens, Fibroblast, 72 h; for fold induction at 1 µM: read-out: 3816 1 uM (FXN mRNA fold change); for fold induction at 5 µM: read-out: 3816 5 uM (FXN mRNA fold change)
Method: FXN RNA levels are indicated on the y-axis and the inhibitors used at both 1 μM and 5 μM are shown on the x-axis.
A screen of a library of eighty epigenetic inhibitors (Cayman Chemical) was performed in GM03816 FRDA fibroblasts to identify epigenetic regulators that upregulate FXN expression.

Compound | FXN mRNA fold change, 321B 1 uM (FXN mRNA [1]) | FXN mRNA fold change, 321B 5 uM (FXN mRNA [1]) | 3816 1 uM (FXN mRNA fold change) (FXN mRNA [2]) | 3816 5 uM (FXN mRNA fold change) (FXN mRNA [2]) | fold induction at 1 µM (FXN mRNA [1]) | fold induction at 5 µM (FXN mRNA [1]) | fold induction at 1 µM (FXN mRNA [2]) | fold induction at 5 µM (FXN mRNA [2])
O=C(O)CCNc1cc(N2CCc3ccccc3CC2)nc(-c2ccccn2)n1 [GSK-J1 (sodium salt)] | 0.9779 | 0.9423 | 0.8866 | 0.7892 | – | – | – | –
Nc1ncn([C@H]2C[C@H](O)[C@@H](CO)O2)c(=O)n1 [Decitabine] | – | – | – | – | 1.15 | 1.53 | – | –
O=C(O)c1ccc(O)c2ncccc12 [IOX1] | 0.9479 | 0.7185 | 1.272 | 0.8722 | – | – | – | –
NC(=O)c1cccnc1 [Nicotinamide] | – | – | – | – | 0.687 | 0.702 | 0.852 | 0.775
CCCCCOc1ccc(/C=C\c2cccc(O)c2C(=O)O)cc1 [CAY10669] | 0.7796 | 0.3094 | 0.8709 | 1.074 | – | – | – | –
Oxamflatin | 0.5612 | 0.2391 | 0.3506 | 0.108 | – | – | – | –
N#C/C(=C\c1ccc(-c2cc(Cl)ccc2Cl)o1)C(=O)Nc1cccc2ncccc12 [AGK2] | 1.115 | 1.053 | 1.206 | 1.101 | – | – | – | –
O=C1CCc2c(ccc3ccccc23)O1 [Splitomicin] | – | – | – | – | 1.08 | 1.01 | 0.957 | 0.939
COc1cc2c(NC3CCN(C(C)C)CC3)nc(C3CCCCC3)nc2cc1OCCCN1CCCC1 [UNC0638, 2-Cyclohexyl-6-methoxy-N-[1-(1-methylethyl)-4-piperidinyl]-7-[3-(1-pyrrolidinyl)propoxy]-4-quinazolinamine, reference compound] | – | – | – | – | 1.09 | 1.02 | 1.27 | 1.17
NC(=O)[C@H](CCCN=C(N)CCl)NC(=O)c1ccccc1 [Cl-Amidine] | 0.9432 | 0.9931 | 1.153 | 0.9028 | – | – | – | –
Anacardic Acid | 1.169 | 0.8356 | 1.162 | 1.01 | – | – | – | –
Nc1ccccc1NC(=O)c1ccc(CNC(=O)OCc2cccnc2)cc1 [MS-275] | – | 0.2713 | 0.2266 | 0.2333 | – | – | – | –
CN(C)c1ccc(C(=O)NCCCCCC(=O)NO)cc1 [CAY10398] | 0.5049 | 0.2106 | 0.6921 | 0.2339 | – | – | – | –
COC(=O)CNC(=O)C(=O)OC [DMOG] | 0.7317 | 0.9433 | 0.9685 | 0.9131 | – | – | – | –
O=C(O)c1ccnc(C(=O)O)c1 [2,4-Pyridinedicarboxylic Acid] | – | – | – | – | 0.458 | 0.645 | 0.885 | 0.888
O=C(O)c1cccc2ccccc12 [1-Naphthoic Acid] | – | – | – | – | 0.819 | 0.72 | 1.05 | 0.869
CNCc1ccc(-c2[nH]c3cc(F)cc4c3c2CCNC4=O)cc1 [AG-014699] | – | – | – | – | 0.895 | 1 | 1.06 | 0.892
CC(C(=O)Nc1cccc(/N=C/c2c(O)ccc3ccccc23)c1)c1ccccc1 (centres unmarked) [Salermide] | – | – | – | – | 1.06 | 0.815 | 1.16 | 0.996
O=C(c1ccc(C(=O)N2CCC(N3CCCC3)CC2)c(Nc2ccccc2)c1)N1CCC(N2CCCC2)CC1 [UNC1215] | – | – | 0.6911 | 0.8743 | – | – | – | –
CN(C)CCCCC(=O)Nc1ccc(NC(=S)NC(=O)c2ccc(C(C)(C)C)cc2)cc1 [Tenovin-6] | 1.23 | 1.282 | – | – | – | – | – | –
CC(=O)Nc1ccc(NC(=S)NC(=O)c2ccc(C(C)(C)C)cc2)cc1 [tenovin-1] | 1.444 | – | – | – | – | – | – | –
